Results as given in patent publication US20250040539A1, “COMPOSITION COMPRISING AN ANTIMICROBIAL AGENT AND A CARBOXAMIDE” (BASF SE, priority 2021, published 2025).

Tested on: bacterial mix: Escherichia coli DSM 1576, Alcaligenes faecalis DSM 13644, Pseudomonas aeruginosa ATCC 15442, Staphylococcus aureus ATCC 6538, Burkholderia …
Test: Preservative activity of a basic composition (10% PG in water, pH 7) with 1,2-benzisothiazol-3(2H)-one (BIT) against bacterial contamination (Example 2.3)
Type: cell-based
Details: 10% PG + 0.004% BIT, no amide (Comparative 2); day 7
Experimental: An aqueous composition of pH 7 comprising 10% by weight of propyleneglycol (PG) as organic solvent, 0.004% by weight of 1,2-benzisothiazol-3(2H)-one (BIT) as antimicrobial and 0.04% by weight of the amide listed in the below table was tested for its preserving activity against bacterial contamination (the percentages are weight percent and relate to the total weight of the composition). For this purpose, the samples were contaminated with a bacterial mix consisting of: • Escherichia coli DSM 1576 • Alcaligenes faecalis DSM 13644 • Pseudomonas aeruginosa ATCC 15442 • Staphylococcus aureus ATCC 6538 • Burkholderia cepacia DSM 7288 • Pseudomonas putida DSM 12735
The samples were inoculated with the bacterial mix at day 0 to obtain 10E+06 to 10E+07 CFU/ml inoculation in the test sample and stored at 25° C. for 7 days.
CFU was determined at day 7.
Any CFU value at day 7 (d7) obtained with a sample according to the invention containing BIT and amide (10% PG+0.004% BIT+Amide in water) lower than the respective value of the “comparative 2” example (10% by weight of propyleneglycol+0.004% by weight of 1,2-benzisothiazol-3(2H)-one (BIT) in water) indicates a better performance.

Compound: O=c1[nH]sc2ccccc12 [BIT, 1,2-benzisothiazol-3(2H)-one, reference compound]
- d7 [CFU/ml]: >100,000 CFU/ml
